The record followed here is patent US20230103237A1, “BIODEGRADABLE PARTICLES AND BIODEGRADABLE PARTICLES IN CONTACT WITH ACTIVE INGREDIENTS” (The United States of America, as represented by the …, priority 2021, published 2023).

SMILES strings stand for the structures.

The test system of the test is Culex quinquefasciatus mosquito larvae. The test can be described thus: whole plant or invertebrate. Type of test: in vivo. An excerpt:
FIG. 5 depicts a graph of the percentage of mosquito larvae death as a function of time for the different zein-silver particle solutions. This graph includes the results from five (5) trials with twenty (20) 3rd instar or 4th instar larvae. The Y axis presents the percentage death (Lethal %). The X axis presents the time after treatment in hours. Circles represent 100 ppm zein-silver particles; triangles represent 1 ppm zein-silver particles; diamonds represent 0.1 ppm zein-silver particles.
The larvicidal effect of the zein-silver particles prepared above was tested on Culex quinquefasciatus mosquito species.

One may read the mortality as the percentage killed. On to `OCC(O)CO` [Glycerol, glycerol], for which the mortality at 0.2 ppm (Culex quinquefasciatus, 40 h, read-out: Larval Mortality (%)) amounted to 0%.
Compound `[BH4-].[Na+]` [sodium borohydride] gave a killing of larvae (0.2 ppm, after 90 hours) of 8%.
